# Experimental data: patent publication US11192865B2, “Benzosulfonyl compounds” (Vivace Therapeutics, Inc., priority 2017, dated 2021)
# System: 8XTBD luciferase reporter
# Test: YAP Reporter Assay
# Format: cell-based
# Details: Homo sapiens, HEK-293T; HEK293T cells stably transfected with 8XTBD luciferase reporter and pRLTK; 24-hr incubation; starting from 3 μM, 1:3 dilution, 10 points; read-out: Firefly Luciferase IC50
# Protocol: HEK293T cells stably transfected with 8XTBD luciferase reporter and pRLTK in 384-well plates were treated with the test compounds, starting from 3 μM (final concentration in assay plate), 1:3 dilution, and 10 points in quadruplicates. Post 24-hr incubation with compounds at 37° C. and 5% CO2, cells were lysed and 8XTBD-driven firefly luciferase and control TK-driven renilla luciferase activities were measured using Promega Dual-Luciferase Reporter Assay System.
# Reagents: The reagents used for this study are: DMEM: Invitrogen #11960077, Dual-Glo Luciferase Assay System: Promega-E2980, Puromycin Dihydrochloride: Invitrogen-A1113803, 384-well plate: PerkinElmer-6007480, L-GLUTAMINE: Invitrogen-25030164, Hygromycin B: Invitrogen-10687010, and Penicillin-Streptomycin: Merk-TMS-AB2-C
# Media: The media used for this assay were: Culture Medium: DMEM+1 ug/mL puromycin+200 ug/mL hygromycin (with 10% FBS+1 mM L-glutamine); and Assay Medium: DMEM (with 10% FBS+1 mM L-glutamine+1×P/S).
# Cell Plating: The appropriate media was warmed at 37° C. by water bath: Culture Medium, Assay Medium, 1* D-PBS, 0.05% trypsin-EDTA. The cells were trypsinized after removing all media, then washed with 1* sterile D-PBS and then with 2 ml 0.05% trypsin-EDTA. The cells were then incubated at RT for one minute. Then 10 ml/75 cm2 flask Assay Medium was added to each flask. Using a 10 ml pipette, the cells were then gently resuspended in the media, until the clumps completely disappeared. The cells were then transferred into 50 ml centrifuge tubes and were centrifuged at 800 rpm for 5 mins. The medium was removed and the cells were resuspended with Assay Medium. An aliquot of cells was used to count the cell density (cells/ml). The cell suspension was then diluted with Assay Medium to a concentration of 6×10^4 cells/ml. 50 ul cells suspension was then plated to 384-well plate (PerkinElmer-6007480), 3×10^3 cells/well and the cells were incubated in an incubator at 37° C., 5% CO2.
# Compound Treatment: In the afternoon (incubation of the plate with 3-4 hrs), the test compounds were added by Echo, starting from 3 uM (final concentration in the assay plate), 1:3 dilution, 10 points, quadruplicates. The plate was placed at 37° C., 5% CO2 incubator for 24 hrs.
# Detection: The Dual-Glo Luciferase Reagent was prepared by transferring the contents of one bottle of Dual-Glo Luciferase Buffer to one bottle of Dual-Glo Luciferase Substrate to create the Dual-Glo Luciferase Reagent. Mixing was performed by inversion until the substrate was thoroughly dissolved. After mixing, the reagent was aliquoted into 15 ml tubes. In the afternoon (24 hrs post compound treatment), the DMEM+ medium in the 384 well plates were aspirated by Microplate Washer.
# Measuring firefly luciferase activity: 20 ul Dual-Glo Luciferase Reagent was added to the 384-well plates. The plates were protected from light to prevent interference with the assay. The plates were shaken for 1 min followed centrifuging plates at 1000 rpm for 30 seconds. After waiting at least 10 minutes, the firefly luminescence was measured by Envision.
# Measuring renilla luciferase activity: 20 ul Stop-Glo Reagent was added to the 384-well plates. The plates were shaken for 1 min and then centrifuged at 1000 rpm for 30 seconds. After waiting at least 10 minutes, the renilla luminescence was measured by Envision.
# Compound IC50 and maximum inhibition on the firefly luciferase and renilla luciferase activities were reported separately.
row,SMILES,IC50 [µM]
1,"CNS(=O)(=O)c1ccc(NC2CCCCC2)c(-c2ccncc2)c1 [Compound 65, 4-(cyclohexylamino)-N-methyl-3-(pyridin-4-yl)benzenesulfonamide]",> 3
2,"CNS(=O)(=O)c1ccc(Nc2ccccc2OC(F)(F)F)c(-c2nnnn2C)c1 [Compound 101, N-methyl-3-(1-methyl-1H-tetrazol-5-yl)-4-((2-(trifluoromethoxy)phenyl)amino)benzenesulfonamide]",> 3
3,"CNS(=O)(=O)c1ccc(NC2CCCCC2)c(-c2cc(N(C)C)ccn2)c1 [Compound 87, 4-(cyclohexylamino)-3-(4-(dimethylamino)pyridin-2-yl)-N-methylbenzenesulfonamide]",≤ 0.1
4,"CNS(=O)(=O)c1ccc(NC2CCCCC2)c(-c2nnn(C3CCN(C(C)C)C3)n2)c1 (stereo not shown) [Compound 36, 4-(cyclohexylamino)-3-(2-(1-isopropylpyrrolidin-3-yl)-2H-tetrazol-5-yl)-N-methylbenzenesulfonamide]",1 to 3
5,"CCn1nnc(-c2cc(S(=O)(=O)NC)ccc2NC2CCCCC2)n1 [Compound 14, 4-(cyclohexylamino)-3-(2-ethyl-2H-tetrazol-5-yl)-N-methylbenzenesulfonamide]",≤ 0.1
6,"CS(=O)(=O)c1ccc(NC2CCCCC2)c(-n2ccnc2)c1 [Compound 11, N-cyclohexyl-2-(1H-imidazol-1-yl)-4-(methylsulfonyl)aniline]",> 3
7,"CNS(=O)(=O)c1ccc(NC2CCCCC2)c(-c2ccccn2)c1 [Compound 64, 4-(cyclohexylamino)-N-methyl-3-(pyridin-2-yl)benzenesulfonamide]",≤ 0.1
8,"CNS(=O)(=O)c1ccc(Nc2cccc(F)c2F)c(-c2nnnn2C)c1 [Compound 106, 4-((2,3-difluorophenyl)amino)-N-methyl-3-(1-methyl-1H-tetrazol-5-yl)benzenesulfonamide]",> 3
9,"CNS(=O)(=O)c1ccc(NC2CCCCC2)c(-c2nnn(C3CCCN(C(C)C)C3)n2)c1 (stereo not shown) [Compound 61, 4-(cyclohexylamino)-3-(2-(1-isopropylpiperidin-3-yl)-2H-tetrazol-5-yl)-N-methylbenzenesulfonamide]",> 3
10,"CNS(=O)(=O)c1ccc(NC2CCCCC2)c(-c2nnn(CCF)n2)c1 [Compound 40, 4-(cyclohexylamino)-3-(2-(2-fluoroethyl)-2H-tetrazol-5-yl)-N-methylbenzenesulfonamide]",≤ 0.1
11,"CNS(=O)(=O)c1ccc(NC2CCCCC2)c(-c2nnn(C3CCCN(C(=O)OC(C)(C)C)C3)n2)c1 (stereo not shown) [Compound 59, tert-butyl 3-(5-(2-(cyclohexylamino)-5-(N-methylsulfamoyl)phenyl)-2H-tetrazol-2-yl)piperidine-1-carboxylate]",0.1 to 1
12,"CNS(=O)(=O)c1ccc(NC2CCCCC2)c(-c2nnn(C3CN(c4ccccc4)C3)n2)c1 [Compound 51, 4-(cyclohexylamino)-N-methyl-3-(2-(1-phenylazetidin-3-yl)-2H-tetrazol-5-yl)benzenesulfonamide]",> 3
13,"CNS(=O)(=O)c1ccc(NC2CCCCC2)c(-c2nnn(-c3ccccc3F)n2)c1 [Compound 23, 4-(cyclohexylamino)-3-(2-(2-fluorophenyl)-2H-tetrazol-5-yl)-N-methylbenzenesulfonamide]",0.1 to 1
14,"CNS(=O)(=O)c1ccc(NC2CCCCC2)c(-c2nnn(C3CN(c4cccnc4)C3)n2)c1 [Compound 70, 4-(cyclohexylamino)-N-methyl-3-(2-(1-(pyridin-3-yl)azetidin-3-yl)-2H-tetrazol-5-yl)benzenesulfonamide]",0.1 to 1
15,"CNS(=O)(=O)c1ccc(NC2CCCCC2)c(-c2nnn(Cc3ccccc3)n2)c1 [Compound 20, 3-(2-benzyl-2H-tetrazol-5-yl)-4-(cyclohexylamino)-N-methylbenzenesulfonamide]",≤ 0.1
16,"CNS(=O)(=O)c1ccc(NC2CCCCC2)c(-c2nnn(C3CCN(C(=O)OC(C)(C)C)CC3)n2)c1 [Compound 28, tert-butyl 4-(5-(2-(cyclohexylamino)-5-(N-methylsulfamoyl)phenyl)-2H-tetrazol-2-yl)piperidine-1-carboxylate]",> 3

row,SMILES,IC50 [µM]
1,"CS(=O)(=O)c1ccc(NC2CCCCC2)c(-n2cncn2)c1 [Compound 12, N-cyclohexyl-4-(methylsulfonyl)-2-(1H-1,2,4-triazol-1-yl)aniline]",> 3
2,"CNS(=O)(=O)c1ccc(NC2CCCCC2)c(-c2nnn(C3CN(S(C)(=O)=O)C3)n2)c1 [Compound 50, 4-(cyclohexylamino)-N-methyl-3-(2-(1-(methylsulfonyl)azetidin-3-yl)-2H-tetrazol-5-yl)benzenesulfonamide]",> 3
3,"CNS(=O)(=O)c1ccc(NC2CCCCC2)c(-c2nnn(C3CCCN(c4ccccc4)C3)n2)c1 (stereo not shown) [Compound 63, 4-(cyclohexylamino)-N-methyl-3-(2-(1-phenylpiperidin-3-yl)-2H-tetrazol-5-yl)benzenesulfonamide]",> 3
4,"CNS(=O)(=O)c1ccc(Nc2ccccc2)c(-c2nnn(C)n2)c1 [Compound 90, N-methyl-3-(2-methyl-2H-tetrazol-5-yl)-4-(phenylamino)benzenesulfonamide]",≤ 0.1
5,"CNS(=O)(=O)c1ccc(NC2CCCCC2)c(-c2nnn(C3CCCN(C(C)=O)C3)n2)c1 (stereo not shown) [Compound 53, 3-(2-(1-acetylpiperidin-3-yl)-2H-tetrazol-5-yl)-4-(cyclohexylamino)-N-methylbenzenesulfonamide]",0.1 to 1
6,"CNS(=O)(=O)c1ccc(NC2CCCCC2)c(-c2nnn(C3CCN(S(C)(=O)=O)CC3)n2)c1 [Compound 32, 4-(cyclohexylamino)-N-methyl-3-(2-(1-(methylsulfonyl)piperidin-4-yl)-2H-tetrazol-5-yl)benzenesulfonamide]",> 3
7,"CNS(=O)(=O)c1ccc(NC2CCCCC2)c(-c2ccncn2)c1 [Compound 69, 4-(cyclohexylamino)-N-methyl-3-(pyrimidin-4-yl)benzenesulfonamide]",0.1 to 1
8,"CNS(=O)(=O)c1ccc(NC2CCCCC2)c(-c2ncccc2OC)c1 [Compound 80, 4-(cyclohexylamino)-3-(3-methoxypyridin-2-yl)-N-methylbenzenesulfonamide]",1 to 3
9,"CNS(=O)(=O)c1ccc(Nc2ccc(-c3ccccc3)cc2)c(-c2nnn(C)n2)c1 [Compound 128, N-methyl-3-(2-methyltetrazol-5-yl)-4-(4-phenylanilino) benzenesulfonamide]",1 to 3
10,"CNS(=O)(=O)c1ccc(NC2CCCCC2)c(-c2nnn(C3CCN(c4ccccc4)C3)n2)c1 (stereo not shown) [Compound 37, 4-(cyclohexylamino)-N-methyl-3-(2-(1-phenylpyrrolidin-3-yl)-2H-tetrazol-5-yl)benzenesulfonamide]",> 3
11,"CNS(=O)(=O)c1ccc(NC2CCCCC2)c(-c2nnn(C3CCN(C(=O)OC(C)C)CC3)n2)c1 [Compound 47, isopropyl 4-(5-(2-(cyclohexylamino)-5-(N-methylsulfamoyl)phenyl)-2H-tetrazol-2-yl)piperidine-1-carboxylate]",> 3
12,"CNS(=O)(=O)c1ccc(NC2CCCCC2)c(-c2nnn(C3CN(C(C)C)C3)n2)c1 [Compound 52, 4-(cyclohexylamino)-3-(2-(1-isopropylazetidin-3-yl)-2H-tetrazol-5-yl)-N-methylbenzenesulfonamide]",0.1 to 1
13,"CNS(=O)(=O)c1ccc(NC2CCCCC2)c(-c2nnn(Cc3ccccc3F)n2)c1 [Compound 19, 4-(cyclohexylamino)-3-(2-(2-fluorobenzyl)-2H-tetrazol-5-yl)-N-methylbenzenesulfonamide]",≤ 0.1
14,"Cn1cc(-c2cc(S(C)(=O)=O)ccc2NC2CCCCC2)nn1 [Compound 6, N-cyclohexyl-2-(1-methyl-1H-1,2,3-triazol-4-yl)-4-(methylsulfonyl)aniline]",0.1 to 1
15,"CNS(=O)(=O)c1ccc(Nc2cccc(F)c2F)c(-c2nnn(C)n2)c1 [Compound 104, 4-((2,3-difluorophenyl)amino)-N-methyl-3-(2-methyl-2H-tetrazol-5-yl)benzenesulfonamide]",0.1 to 1
